Literature values in publication PMC8452925, “Differential Modulation of the Voltage-Gated Na^+ Channel 1.6 by Peptides Derived From Fibroblast Growth Factor 14” (Frontiers in Molecular Biosciences, 2021).

Tests used:
FGF14:Nav1.6 complex = target: T1, FGF14:Nav1.6 complex (Homo sapiens, UniProt Q92915); details: ref Singh et al., 2020
T1 construct: expressed in transfected cells
T1 sequence (Q92915 1-252 isoform Q92915-2): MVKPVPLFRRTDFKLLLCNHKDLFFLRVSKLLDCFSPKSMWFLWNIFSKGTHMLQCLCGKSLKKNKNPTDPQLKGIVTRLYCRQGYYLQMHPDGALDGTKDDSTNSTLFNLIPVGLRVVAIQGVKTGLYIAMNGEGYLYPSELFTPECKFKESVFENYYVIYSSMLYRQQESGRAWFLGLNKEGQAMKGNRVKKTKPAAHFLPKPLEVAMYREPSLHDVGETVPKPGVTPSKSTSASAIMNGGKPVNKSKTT
From the text: (§1) To guide drug discovery efforts targeting the PPI interface between FGF14 and the CTD of Nav1.6, we previously developed and interrogated a homology model of the PPI interface to identify putative clusters of amino acids central to assembly of the complex ([Ali et al., 2014], [2016]). These investigations identified the Phe-Leu-Pro-Lys (FLPK) and Pro-Leu-Glu-Val (PLEV) motifs on the β12 sheet of FGF14, and the Glu-Tyr-Tyr-Val (EYYV) motif on the β8-β9 loop of FGF14, as being putatively essential for FGF14:Nav1.6 complex assembly ([Ali et al., 2014], [2016]). To investigate if short peptides de ...

MSNs of the NAc = details: ref Singh et al., 2020
From the text: as §1

[1] = system: human Nav1.6 with FGF14-GFP; details: ref Singh et al., 2020
From the text: as §1

[2] = system: FGF14^Y158A:Nav1.6 complex; details: 50 µM, LCA, ref Singh et al., 2020
Protocol: In our previous study ([Singh et al., 2020]), we pharmacologically evaluated all three tetrapeptides at a single concentration of 50 µM using the LCA. […] For example, in the FGF14^V160A condition, all three peptides lost activity, whereas in the FGF14^Y158A condition, FLPK retaine ...

Phe-Leu-Pro-Lys [FLPK, tetrapeptide from the β12 sheet of FGF14, previously evaluated (Singh et al., 2020)]
Effect on FGF14:Nav1.6 complex assembly (in words) (FGF14:Nav1.6 complex): inhibited FGF14:Nav1.6 complex assembly
Effect on neuronal excitability (in words) (MSNs of the NAc): affected neuronal excitability of MSNs of the NAc
Effect on FGF14-mediated regulation of Nav1.6 channel activity (in words) [1]: reversed FGF14-mediated regulatory effects on Nav1.6 channel activity
Effect on complex assembly with FGF14^Y158A (in words) [2]: retained its inhibitory effects on FGF14:Nav1.6 complex assembly
